The text below walks through data of US6133294A (priority 1999, dated 2000).

Common to all, as to format: in vivo
Assay [1] concerns Leptosphaeria nodorum. In words: Glume blotch of wheat (Leptosphaeria nodorum--LEPTNO). To be noted: wheat (cultivar Monon), 100 ppm spray to run off, inoculated after 24 hours; for pest or weed control at 100 ppm: Parastagonospora nodorum, 1DP, read-out: control of plant disease, LEPTNO 1DP. How it is done:
(§1) Compound Formulation: Compound formulation was accomplished by dissolving technical materials in acetone, with serial dilutions then made in acetone to obtain desired rates. Final treatment volumes were obtained by adding nine volumes 0.05% aqueous Tween-20 or Triton X-100, depending upon the pathogen.
Glume blotch of wheat (Leptosphaeria nodorum--LEPTNO): Wheat (cultivar Monon) was grown from seed in a soilless peat-based potting mixture (Metromix) until the seedlings were 1-2 leaf (BBCH 12). These plants were then sprayed to run off with the test compound at a rate of 100 ppm. After 24 hours the test plants were inoculated with an aqueous spore suspension of Leptosphaeria nodorum. The plants were then transferred to the greenhouse until disease developed on the untreated control plants.
(§2) the following table presents the activity of typical compounds of the present invention when evaluated in these experiments. The effectiveness of the test compounds in controlling disease was rated using the following scale: […]

For assay [2], the system named is Erysiphe graminis. In words: Powdery Mildew of Wheat (Erysiphe graminis--ERYSGT). The settings on record: wheat (cultivar Monon), 100 ppm spray to run off, inoculated after 24 hours; for pest or weed control at 100 ppm: Blumeria graminis, 1DP, read-out: control of plant disease, ERYSGT 1DP. How it is done: as §1
Powdery Mildew of Wheat (Erysiphe graminis--ERYSGT): Wheat (cultivar Monon) was grown in a soilless peat-based potting mixture (Metromix) until the seedlings were 1-2 leaf (BBCH 12). These plants were then sprayed to run off with the test compound at a rate of 100 ppm. After 24 hours the test plants were inoculated with Erysiphe graminis by dusting spores from stock plants onto the test plants. The plants were then transferred to the greenhouse until disease developed on the untreated control plants.
as §2

Assay [3] has as its system Puccinia recondita. In words: Brown rust (Puccinia recondita--PUCCRT). To be noted: wheat (cultivar Monon), 100 ppm spray to run off, inoculated after 24 hours; for pest or weed control at 100 ppm: Puccinia recondita, 1DP, read-out: control of plant disease, PUCCRT 1DP. How it is done: as §1
Brown rust (Puccinia recondita--PUCCRT): Wheat (cultivar Monon) was grown from seed in a soilless peat-based potting mixture (Metromix) until the seedlings were […]). These plants were then sprayed to run off with the test compound at a rate of 100 ppm. After 24 hours the test plants were inoculated with an aqueous spore suspension of Puccinia recondita. The plants were then transferred to the greenhouse until disease developed on the untreated control plants.
as §2

Assay [4] relates to Phytophthora infestans. Put plainly: whole plant or invertebrate. The settings on record: for pest or weed control at 100 ppm: Phytophthora infestans, 24 h, read-out: control of plant disease, PHYTIN 1DP; for control of plant disease, PHYTIN 1DP: tomatoes (cultivar Rutgers), 100 ppm spray to run off, inoculated after 24 hours.

Take `CCc1noc(-c2ccc(OCc3ccccc3C(=NOC)C(=O)NC)nc2)n1` [Example 63]: the values for the pest or weed control at 100 ppm in assay [1], in assay [2] and in assay [3] were 25 to 74%, 75 to 100% and 75 to 100%, respectively.

As for `CCc1noc(-c2cnc(OCc3ccccc3C(=NOC)C(=O)OC)c(Cl)c2)n1` [Example 101], the pest or weed control at 100 ppm was 25 to 74% in assay [1], 75 to 100% in assay [2], 75 to 100% in assay [3] and 75 to 100% in assay [4].

In the case of `CNC(=O)C(=NOC)c1cccc(F)c1COc1ncc(-c2noc(C(F)(F)F)n2)cc1Cl` [Example 32], the “control of plant disease, LEPTNO 1DP” value in assay [1] is recorded as “+ (25-74% control of plant disease)”. Moreover, in assay [2], the “control of plant disease, ERYSGT 1DP” value was “++ (75-100% control of plant disease)”. Moreover, in assay [3], the “control of plant disease, PUCCRT 1DP” value was “++ (75-100% control of plant disease)”. Besides, the “control of plant disease, PHYTIN 1DP” value in assay [4] was “- (0-24% control of plant disease)”.

As for `CNC(=O)C(=NOC)c1ccccc1COc1ccc(-c2noc(CSc3ccccc3)n2)cn1` [Example 28], the pest or weed control at 100 ppm in assay [1], in assay [2], in assay [3] and in assay [4] was 75 to 100% each time.

For `CNC(=O)C(=NOC)c1ccccc1COc1ncc(-c2noc(CSc3ccccc3)n2)cc1Cl` [Example 24], the pest or weed control at 100 ppm in assay [1] was in the range of 75 to 100%; in assay [2] it was 0 to 24%; in assay [3], 75 to 100%; in assay [4], 75 to 100%.

On to `COC=C(C(=O)OC)c1ccccc1COc1ncc(-c2nc(C(C)(C)C)no2)cc1Cl` [Example 100], for which the pest or weed control at 100 ppm in assay [1] is 25 to 74%; in assay [2], 25 to 74%; in assay [3], 75 to 100%; in assay [4], 75 to 100%.

Consider `CCc1cc(-c2ccc(OCc3ccccc3C(=NOC)C(=O)NC)nc2)on1` [Example 80], for which, in assay [4], the pest or weed control at 100 ppm is 0 to 24%.

With `CNC(=O)C(=NOC)c1ccccc1COc1ncc(-c2nc(C(F)(F)F)no2)cc1Cl` [Example 68], the pest or weed control at 100 ppm in assay [1] was 75 to 100%; in assay [2], 75 to 100%; in assay [3], 75 to 100%; in assay [4] it was 0 to 24%.

For the molecule `CON=C(C(=O)OC)c1ccccc1COc1ncc(-c2noc(C(C)(C)C)n2)cc1Cl` [Example 97], the pest or weed control at 100 ppm in assay [1], in assay [2], in assay [3] and in assay [4] was 75 to 100% each time.

For `CNC(=O)C(=NOC)c1ccccc1COc1ccc(-c2nc(C3CCCCC3)no2)cn1` [Example 73], the pest or weed control at 100 ppm in assay [1] lay in the range of 0 to 24%; in assay [2] it was 75 to 100%; in assay [3], 75 to 100%; in assay [4], 25 to 74%.

On to `CNC(=O)C(=NOC)c1ccccc1COc1ccc(-c2noc(C)n2)cn1` [Example 10], for which the pest or weed control at 100 ppm in assay [1] was 75 to 100%; in assay [2], 75 to 100%; in assay [3], 75 to 100%; in assay [4], 0 to 24%.

With `CNC(=O)C(=NOC)c1cccc(Cl)c1COc1ncc(-c2noc(C(F)(F)F)n2)cc1Cl` [Example 34], the “control of plant disease, LEPTNO 1DP” value in assay [1] is recorded as “++ (75-100% control of plant disease)”. In addition, the “control of plant disease, ERYSGT 1DP” value in assay [2] is recorded as “++ (75-100% control of plant disease)”. For the same molecule, the “control of plant disease, PUCCRT 1DP” value in assay [3] is reported as “++ (75-100% control of plant disease)”. The “control of plant disease, PHYTIN 1DP” value in assay [4] was “- (0-24% control of plant disease)”.

Take `CNC(=O)C(=NOC)c1ccccc1COc1ccc(-c2nc(CC(C)C)no2)cn1` [Example 75]: the pest or weed control at 100 ppm in assay [1] fell in the range of 25 to 74%; in assay [2], 75 to 100%; in assay [3] it was 75 to 100%; in assay [4] it was 0 to 24%.

Turning to `CNC(=O)C(=NOC)c1ccccc1COc1ncc(-c2nnc(C(C)(C)C)o2)cc1Cl` [Example 4], the pest or weed control at 100 ppm in assay [1] fell in the range of 75 to 100%; in assay [2] it was 75 to 100%; in assay [3], 75 to 100%; in assay [4], 0 to 24%.

With `CNC(=O)C(=NOC)c1ccccc1COc1ncc(-c2noc(C(C)(C)C)n2)cc1Cl` [Example 6, Benzeneacetamide, 2-[[[3-chloro-5-(5-t-butyl-1,2,4-oxadiazol-3-yl)-2-pyridinyl]oxy]methyl]-α-(methoxyimino)-N-methyl-], the pest or weed control at 100 ppm in assay [1], in assay [2], in assay [3] and in assay [4] was 75 to 100% in each case.

As to `CNC(=O)C(=NOC)c1ccccc1COc1ncc(-c2nc(-c3ccccc3)no2)cc1Cl` [Example 48], the pest or weed control at 100 ppm in assay [1] fell in the range of 25 to 74%; in assay [2], 75 to 100%; in assay [3], 75 to 100%; in assay [4] it was 75 to 100%.

Regarding `CNC(=O)C(=NOC)c1ccccc1COc1ccc(-c2cc(C(C)C)on2)cn1` [Example 42], the pest or weed control at 100 ppm in assay [1] lay within 0 to 24%; in assay [2], 75 to 100%; in assay [3], 75 to 100%; in assay [4], 75 to 100%.

As for `CCc1noc(-c2nc(OCc3ccccc3C(=NOC)C(=O)NC)ccc2Cl)n1` [Example 81], the pest or weed control at 100 ppm in assay [1] lay in the range of 25 to 74%; in assay [2], 75 to 100%; in assay [3], 75 to 100%; in assay [4], 25 to 74%.

For `CNC(=O)C(=NOC)c1ccccc1COc1ncc(-c2noc(-c3ccccc3)n2)cc1Cl` [Example 7], the pest or weed control at 100 ppm in assay [1], in assay [2], in assay [3] and in assay [4] was 75 to 100% in each case.

For the molecule `CNC(=O)C(=NOC)c1ccccc1COc1ccc(-c2nc(C(F)(F)F)no2)cn1` [Example 71], the pest or weed control at 100 ppm in assay [1] was in the range of 0 to 24%; in assay [2], 75 to 100%; in assay [3], 75 to 100%; in assay [4], 75 to 100%.

`CNC(=O)C(=NOC)c1ccccc1COc1ccc(-c2noc(COC)n2)cn1` [Example 25]: the pest or weed control at 100 ppm in assay [1] is 25 to 74%; in assay [2] it was 75 to 100%; in assay [3], 75 to 100%; in assay [4] it was 75 to 100%.

In the case of `CNC(=O)C(=NOC)c1ccccc1COc1ccc(-c2cc(-c3ccccc3)on2)cn1` [Example 44], the pest or weed control at 100 ppm in assay [4] was 0 to 24%.

Regarding `CNC(=O)C(=NOC)c1ccccc1COc1ncc(-c2nc(CSc3ccccc3)no2)cc1Cl` [Example 58], the pest or weed control at 100 ppm in assay [1], in assay [2] and in assay [3] was 75 to 100% throughout.

As to `CNC(=O)C(=NOC)c1ccccc1COc1ncc(-c2nc(C(C)C)no2)cc1Cl` [Example 59], the pest or weed control at 100 ppm in assay [1], in assay [2] and in assay [3] was 75 to 100% throughout.

Turning to `CNC(=O)C(=NOC)c1ccccc1COc1ncc(-c2nc(COC)no2)cc1Cl` [Example 61], the pest or weed control at 100 ppm in assay [1] was in the range of 0 to 24%; in assay [2], 75 to 100%; in assay [3] it was 75 to 100%.

`CNC(=O)C(=NOC)c1ccccc1COc1ncc(-c2nc(COc3ccccc3)no2)cc1Cl` [Example 57]: the pest or weed control at 100 ppm in assay [1] is 25 to 74%; in assay [2], 75 to 100%; in assay [3], 75 to 100%.

As to `CNC(=O)C(=NOC)c1ccccc1COc1ncc(-c2nc(C(C)(C)C)no2)cc1C` [Example 60], the pest or weed control at 100 ppm in assay [1], in assay [2] and in assay [3] was 75 to 100% in each case.

With `CNC(=O)C(=NOC)c1ccccc1COc1ccc(-c2cc(C)on2)cn1` [Example 45], the pest or weed control at 100 ppm in assay [4] fell in the range of 25 to 74%.

Consider `CNC(=O)C(=NOC)c1ccccc1COc1ncc(-c2cc(C)no2)cc1Cl` [Example 79], for which the pest or weed control at 100 ppm in assay [4] was 0 to 24%.

For `CNC(=O)C(=NOC)c1ccccc1COc1ncc(-c2nc(CSC)no2)cc1Cl` [Example 62], the pest or weed control at 100 ppm in assay [1], in assay [2] and in assay [3] was 75 to 100% in each case.
